Among the data in US20250019386A1, “PYRROLO[1,2-b]-2-PYRIDAZINONE COMPOUNDS AS 5-HT4 RECEPTOR AGONISTS” (SUVEN LIFE SCIENCES LIMITED, priority 2022, published 2025) are gastric emptying, gastric motor activity and Kp values, retold here.

The test system of one data set is gastric emptying. Description: Effect on gastric emptying in Beagle dogs (clonidine model of gastroparesis). It is filed as in vivo. Particulars: 3 and 10 mg/kg oral. As to the method:
Six beagle dogs were used for the study in a crossover manner such that all 6 dogs received all the treatments. Each dog was placed in an individual cage after overnight fasting and water removed. To provide a model of gastroparesis, clonidine (α2 adrenergic agonist) at a dose of 10 μg/kg was injected subcutaneously 30 min before test meal administration.
Dogs were orally administered test compound of example 2 at 1, 3 and 10 mg/kg or vehicle or cisapride at 10 mg/kg immediately before the administration of clonidine. The test meal (10 mL/kg), made up of commercially available semi-solid food with 10 mg/kg of acetaminophen (APAP), was provided 30 min after clonidine injection. Blood samples were collected from cephalic vein at 0, 0.25, 0.5, 0.75, 1.0, 1.25, 1.5 & 2.0 h after test meal administration and then plasma was separated by centrifugation. Plasma concentrations of APAP were determined by in-house methods using LC-MS/MS.

Data set [1] can be described thus: Rat brain penetration study. Particulars: brain/plasma, oral (gavage) 3 mg/kg, male Wistar rats, brain concentrations below LLOQ taken as zero, read-out: Single dose Brain Penetration (Cb/Cp). Format: in vivo. Here is the method: Male Wistar rats (225±25 g) were used as experimental animals. Three animals were housed in each cage. Animals were given water and food ad libitum throughout the experiment and maintained on a 12 h light/dark cycle.
Brain penetration was determined in discrete manner in rats. One day prior to dosing day, male Wistar rats were acclimatized. After acclimatization, the rats were grouped according to their weight. In each group, 3 animals were kept in individual cages and allowed free access to food and water. At each time point (0.5, 1, and 2 h) n=3 animals were used.
The compounds of formula (I) were suitably preformulated and administered orally at (free base equivalent) 3 mg/kg. Blood samples were collected via, cardiac puncture by using isoflurane anesthesia. The animals were sacrificed to collect brain tissue. Plasma was separated and brain samples were homogenized and stored frozen at −20° C. until analysis.
The concentrations of the compounds of formula (I) were quantified in plasma and brain homogenate by qualified LC-MS/MS method using a suitable extraction technique. The compounds of formula (I) were quantified in the calibration range of 1-2000 ng/mL in plasma and brain homogenate. Study samples were analyzed using calibration samples in the batch and quality control samples spread across the batch. Extent of brain-plasma ratio was calculated (Cb/Cp). Brain concentrations were found below LLOQ and a value of zero was considered for calculation purposes.

Regarding `CC(C)n1c(=O)c(C(=O)NC2CC3CCC(C2)N3C[C@@H](O)CN(C)S(C)(=O)=O)cc2cccn21.O=C(O)C(O)C(O)C(=O)O` (single isomer, unassigned) [Example 2], the gastric emptying result in the data set with gastric emptying (clonidine-treated (10 μg/kg s.c.) beagle dogs, plasma APAP) is given as “enhanced the gastric emptying in dose dependent manner”. For the same compound, in the data set on gastric emptying (clonidine-treated beagle dogs), the gastric motor activity entry is listed as “increased gastric motor activity”. For the same compound, the Kp in data set [1] worked out at 0.
